From the NIST ThermoML archive (doi:10.1021/je3004645)

Settings: for electrical conductivity / mass density / viscosity: 101.33 kPa, Liquid; for electrical conductivity: Alternating current cell with electrodes; for mass density: Pycnometric method; for viscosity: Capillary tube (Ostwald / Ubbelohde) method; for Triple point temperature / Glass transition temperature: DTA

CC[n+]1ccc(C)cc1.O=S(=O)([N-]S(=O)(=O)C(F)(F)F)C(F)(F)F
Settings	Glass transition temperature [°C]	Triple point temperature [K]	electrical conductivity [S/m]	mass density [kg/m3]	viscosity [mPa·s]
–	-74.5	–	–	–	–
283.15 K	–	–	0.424	1505.2	–
288.15 K	–	–	0.525	1501	–
293.15 K	–	–	0.638	1496.1	–
298.15 K	–	–	0.763	1492	32.75
303.15 K	–	–	0.901	1487.7	27.31
308.15 K	–	–	1.05	1483	23.1
313.15 K	–	–	1.21	1478.3	19.69
318.15 K	–	–	1.38	1473.4	16.95
323.15 K	–	–	1.55	1468.8	14.66
328.15 K	–	–	1.75	1464.4	12.85
333.15 K	–	–	1.96	1459.9	11.34
338.15 K	–	–	2.17	1455.1	10.1
343.15 K	–	–	–	–	9.07
348.15 K	–	–	–	–	8.19
353.15 K	–	–	–	–	7.43
358.15 K	–	–	–	–	6.76
363.15 K	–	–	–	–	6.19
Crystal 1	–	291	–	–	–
Crystal 2	–	278.2	–	–	–

CCCC[n+]1ccc(C)cc1.O=S(=O)([N-]S(=O)(=O)C(F)(F)F)C(F)(F)F
Settings	Glass transition temperature [°C]	Triple point temperature [K]	electrical conductivity [S/m]	mass density [kg/m3]	viscosity [mPa·s]
–	-78	–	–	–	–
278.15 K	–	–	0.124	–	–
283.15 K	–	–	0.166	1432.8	–
288.15 K	–	–	0.215	1428.4	–
293.15 K	–	–	0.273	1423.4	–
298.15 K	–	–	0.341	1418.7	55.14
303.15 K	–	–	0.419	1414	44.2
308.15 K	–	–	0.509	1409.3	35.85
313.15 K	–	–	0.6	1404.7	29.61
318.15 K	–	–	0.702	1400.2	24.77
323.15 K	–	–	0.817	1395.8	20.85
328.15 K	–	–	0.941	1391.3	17.86
333.15 K	–	–	1.07	1386.9	15.37
338.15 K	–	–	1.21	1382.5	13.42
343.15 K	–	–	–	–	11.65
348.15 K	–	–	–	–	10.15
353.15 K	–	–	–	–	8.89
358.15 K	–	–	–	–	7.94
Crystal 1	–	292.4	–	–	–
Crystal 2	–	242.2	–	–	–
Crystal 3	–	235.8	–	–	–
